{
  "source": "paper PMC6070540",
  "about": "“SUMO-mediated regulation of NLRP3 modulates inflammasome activity” (Nature Communications, 2018)",
  "molecules": {"B1": {"name": "WT MAPL: mitochondrial-anchored protein ligase, SUMO E3 ligase (protein)", "chain": "MESGGRPSLCQFILLGTTSVVTAALYSVYRQKARVSQELKGAKKVHLGEDLKSILSEAPGKCVPYAVIEGAVRSVKETLNSQFVENCKGVIQRLTLQEHKMVWNRTTHLWNDCSKIIHQRTNTVPFDLVPHEDGVDVAVRVLKPLDSVDLGLETVYEKFHPSIQSFTDVIGHYISGERPKGIQETEEMLKVGATLTGVGELVLDNNSVRLQPPKQGMQYYLSSQDFDSLLQRQESSVRLWKVLALVFGFATCATLFFILRKQYLQRQERLRLKQMQEEFQEHEAQLLSRAKPEDRESLKSACVVCLSSFKSCVFLECGHVCSCTECYRALPEPKKCPICRQAITRVIPLYNS", "modifications": "left off: 2xHA, end not stated, kept | 2xSTREP, end not stated, state not stated"}},
  "key": {"[1]": {"tested_on": "endogenous NLRP3 and SUMO-2/-3", "assay": "Proximity ligation assay (PLA) NLRP3/SUMO-2/-3", "assay_type": "cell-based, murine", "details": "immortalised WT BMDMs; LPS 4 h followed by 10 µM nigericin 30 min or 5 mM ATP 20 min (ATP n = 1)", "description": "(§1) For immunofluorescence staining, 1.5 × 10^5 cells were plated on 13 mm glass cover slips (VWR). Cells were either left untreated, or treated with LPS (500 ng/ml) for 4 h followed or not by 10 µM nigericin for 30 min or 5 mM ATP for 20 min, before being fixed in 4% paraformaldehyde for 10 min. Following 10 min permeabilization with PBS containing 0.5% Triton X-100, cells were incubated for 1 h in 5% BSA in PBS. Respective primary antibodies were then added as follows: mouse α-NLRP3 (AG-20B-0014, AdipoGen, 1:1000), rabbit α-SUMO-2/3 (4971, Cell Signalling, 1:1000), rabbit α-ASC (AG-25B-0006, AdipoGen, 1:200) and rabbit α-MAPL (ab84067, Abcam, 1:1000). Alexa Fluor 633-conjugated Phalloidin (Invitrogen, 1:500) was used to stain actin filaments. Secondary fluorescent conjugated antibodies were then added as follows: 1:1000 CF488A-donkey α-mouse and 1:1000 CF488-donkey α-rabbit. Nuclei were stained with DAPI (Invitrogen). Cells were visualised by confocal microscopy (objective× 40, Zeiss LSM710). PLA was performed according to the manufacturer’s protocol using the Duolink Detection Kit (Cambridge BioScience Ltd). […] The number of fluorescent spots in 50 cells were quantified using ImageJ and data analysed using two-way ANOVA multiple comparison test or two-tailed Student’s t-test using Prism 7, Graphpad."}, "[2]": {"tested_on": "NLRP3 and ASC", "assay": "PLA NLRP3/ASC (inflammasome formation)", "assay_type": "cell-based, murine", "details": "WT BMDMs; LPS 4 h followed by 10 µM nigericin 30 min or 5 mM ATP 20 min (ATP n = 1)", "description": "as §1"}, "[3]": {"tested_on": "FLAG-tagged human NLRP3", "assay": "Sumoylation of NLRP3 in HEK293T cells (denaturing immunoprecipitation, immunoblot)", "assay_type": "cell-based", "details": "for sumoylation of mutant NLRP3: transfected HEK293T cells, compared to WT NLRP3", "description": "(§2) For sumoylation and ubiquitination assays 2 × 10^6 HEK293T cells were plated in 10 cm dishes and transfected with a total of 7.5 μg of DNA the following day. A modified version of “Detection of Sumoylated Proteins by Immunoprecipitation Analysis”[61] was used. Briefly, 16 h post-transfection cells were lysed in SDS lysis buffer (1% SDS, 0.15 M Tris-HCl pH 6.8 and 30% Glycerol). Lysates were boiled for 5 min and diluted 10 × in PBS-T (PBS and 1% Triton-X 100) supplemented with PR-619 (50 μM) and complete protease inhibitors. Cell lysates were sonicated for 20 s then clarified at 4 °C at 13,000 rpm for 10 min. A 20 μl of α-HA beads (SIGMA) or α-FLAG M2 beads (SIGMA) was rotated with cleared protein lysates at 4 °C for 4 h. Furthermore, 4× washes in PBS-T, supplemented with PR-619 (20 μM) and complete protease inhibitors, were performed, and samples eluted by boiling in 60 μl 1× SDS loading dye. Samples were separated by SDS-PAGE using Bolt 8% Bis-Tris plus 1.0 mm 12 well precast protein gels (Life Technologies) in MOPS buffer. Where necessary, the modification smears were quantified using Image Lab Software (Bio-Rad) and normalised to total immunoprecipitated NLRP3 in biological triplicate."}, "[4]": {"tested_on": "FLAG-NLRP3", "assay": "Ubiquitylation of NLRP3 in HEK293T cells (immunoprecipitation, immunoblot)", "assay_type": "cell-based, human", "description": "as §2"}, "[5]": {"tested_on": "NLRP3, SUMO-2/-3, MAPL", "assay": "Immunofluorescence staining of NLRP3, SUMO-2/-3, MAPL", "assay_type": "cell-based, murine", "details": "BMDMs", "description": "as §1"}, "[6]": {"tested_on": "SUMO-2/-3 proteome", "assay": "Global sumoylation (RanGAP1, total SUMO-2/-3 proteome)", "assay_type": "cell-based, human", "details": "HEK293T cells, nigericin", "description": "as §2"}, "[7]": {"tested_on": "NLRP3 and MAPL", "assay": "PLA NLRP3/MAPL", "assay_type": "cell-based, murine", "details": "WT BMDMs; untreated, LPS 4 h, or LPS 4 h followed by 10 µM nigericin 30 min; biological triplicate", "description": "as §1"}, "[8]": {"tested_on": "caspase-1", "assay": "Caspase-1 cleavage assay in 293T-ASC-caspase-1 cells", "assay_type": "cell-based, human", "details": "transfected 293T-ASC-caspase-1 cells; p20 immunoblot", "method": "For caspase-1 cleavage assays 1 × 10^5 HEK293T-ASC-caspase-1 cells were plated in 24-well plates and transfected with a total of 600 ng of DNA the following day. Cells were lysed in 80 μl of DISC lysis buffer (20 mM Tris-HCL pH 7.5, 150 mM NaCl, 2 mM EDTA, 1% Triton X-100, 10% Glycerol) supplemented with 2% SDS. To shred genomic DNA cell lysates were passed through 0.8 ml columns (Pierce). Lysates were quantified using BCA protein assay kit (Pierce) and 6× SDS loading dye added. Samples were boiled for 5 min before separating by SDS-PAGE using NuPAGE Novex 4–12% Bis-Tris 1.0 mm 20 well precast midi protein gels (Life Technologies) in MES buffer. Caspase-1 p20 antibody (Bally-1, human, Adipogen) was used to detect total and cleaved caspase-1 in cell lysate."}},
  "data": [
    {"molecule": "Nc1ncnc2c1ncn2[C@@H]1O[C@H](COP(=O)(O)OP(=O)(O)OP(=O)(O)O)[C@@H](O)[C@H]1O", "note": "[ATP]", "values": [
      {"measurement": "NLRP3-SUMO-2/-3 PLA signals upon inflammasome activation", "setting": "[1]", "value": "significantly reduced proximity labelling of NLRP3 and SUMO-2/-3"},
      {"measurement": "NLRP3-ASC inflammasome complexes (PLA)", "setting": "[2]", "value": "specifically formed upon treatment with LPS and nigericin or ATP"}
    ]},
    {"molecule": "N#CSc1cc(SC#N)c(N)nc1N", "note": "[PR-619]", "values": [
      {"measurement": "appearance of sumoylated NLRP3", "setting": "[3]; HEK293T cells transfected with FLAG-tagged human NLRP3, endogenous SUMO-2/-3, immunoblot, in the presence vs absence of compound", "value": "significantly enhanced the appearance of sumoylated NLPR3"}
    ]},
    {"molecule": "CO[C@@H]1C[C@@H](C[C@H]2CC[C@H](C)[C@H]([C@@H](C)C(=O)O)O2)O[C@]2(O[C@](C)([C@H]3CC[C@@](C)([C@@H]4O[C@@H]([C@H]5O[C@@](O)(CO)[C@H](C)C[C@@H]5C)C[C@@H]4C)O3)C[C@H]2C)[C@@H]1C", "note": "[nigericin]", "values": [
      {"measurement": "ubiquitylated NLRP3 after stimulation", "setting": "[4]; HEK293T cells expressing FLAG-NLRP3, nigericin time course, three independent experiments", "value": "less ubiquitylated"},
      {"measurement": "sumoylated NLRP3 after stimulation", "setting": "[3]; HEK293T cells expressing FLAG-NLRP3, nigericin time course, normalised to total immunoprecipitated NLRP3, three independent experiments", "value": "induced notable reduction of sumoylated NLRP3"},
      {"measurement": "general expression of NLRP3 and SUMO-2/-3", "setting": "[5]; LPS and nigericin, immunofluorescence", "value": "unaffected"},
      {"measurement": "MAPL staining", "setting": "[5]; nigericin, conventional immunofluorescence", "value": "caused a decrease in MAPL staining"},
      {"measurement": "NLRP3-SUMO-2/-3 PLA signals upon inflammasome activation", "setting": "[1]", "value": "significantly reduced proximity labelling of NLRP3 and SUMO-2/-3"},
      {"measurement": "sumoylation of RanGAP1", "setting": "[6]; selectivity control", "value": "remained sumoylated"},
      {"measurement": "overall smearing pattern of total SUMO-2/-3 proteome", "setting": "[6]; total cell lysates", "value": "no apparent change"},
      {"measurement": "NLRP3-ASC inflammasome complexes (PLA)", "setting": "[2]", "value": "specifically formed upon treatment with LPS and nigericin or ATP"},
      {"measurement": "MAPL/NLRP3 proximity signals", "setting": "[7]", "value": "almost completely abolished MAPL/NLRP3 proximity signals"}
    ]},
    {"molecule": "NLRP3^E690K: reported CAPS disease mutant", "values": [
      {"measurement": "sumoylation of mutant NLRP3", "setting": "[3]", "value": "did not reduce the overall sumoylation smearing pattern"}
    ]},
    {"molecule": "NLRP3^E692K: reported CAPS disease mutant", "values": [
      {"measurement": "sumoylation of mutant NLRP3", "setting": "[3]", "value": "did not reduce the overall sumoylation smearing pattern"}
    ]},
    {"molecule": "NLRP3^K689R: full length NLRP3 with K689 mutated to R", "values": [
      {"measurement": "ubiquitylation of mutant NLRP3", "setting": "[4]; transfected HEK293T cells, compared to WT NLRP3", "value": "no effect"},
      {"measurement": "sumoylation of mutant NLRP3", "setting": "[3]", "value": "no effect"},
      {"measurement": "ability of NLRP3 to activate caspase-1", "setting": "[8]", "value": "hyperactive in driving caspase-1 cleavage"}
    ]},
    {"molecule": "B1", "values": [
      {"measurement": "sumoylation of NLRP3 by co-expressed MAPL", "setting": "[3]; FLAG-NLRP3 purified under denaturing conditions, HEK293T, three independent experiments", "value": "sumoylated NLRP3"}
    ]}
  ]
}
